Here are results for 40 compounds from patent publication US20230271949A1, “GLP-1R MODULATING COMPOUNDS” (ASCLETIS BIOSCIENCE CO., LTD., priority 2022, published 2023).

The target in this experiment is GLP-1R (Homo sapiens, UniProt P43220). As to the kind of experiment: GLP-1R agonist cAMP stimulation assay (HTRF cAMP). Type of experiment: cell-based. Particulars: HEK293 cell line expressing GLP-1 target; HTRF cAMP agonist mode, 30 min at RT. Here is the method: cAMP Detection Kit, Cisbio (Cat #62AM4PEJ)
GLP-1R, sequence (P43220 24-463): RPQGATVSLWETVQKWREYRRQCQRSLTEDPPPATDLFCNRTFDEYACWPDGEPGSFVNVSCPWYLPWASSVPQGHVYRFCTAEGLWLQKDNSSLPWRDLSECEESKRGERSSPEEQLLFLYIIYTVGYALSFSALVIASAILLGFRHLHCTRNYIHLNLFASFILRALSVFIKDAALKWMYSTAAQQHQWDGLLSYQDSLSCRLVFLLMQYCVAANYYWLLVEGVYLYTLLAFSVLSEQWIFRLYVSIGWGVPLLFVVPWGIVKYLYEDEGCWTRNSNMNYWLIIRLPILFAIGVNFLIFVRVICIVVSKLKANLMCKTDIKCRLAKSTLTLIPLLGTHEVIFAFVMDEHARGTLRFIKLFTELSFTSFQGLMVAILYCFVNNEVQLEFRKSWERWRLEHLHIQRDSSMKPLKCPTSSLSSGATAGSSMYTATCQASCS
The cell line was constructed by WuXi.
2. Methods • a) The compound source plate preparation: • The reference 7-37 was diluted from 500 nM, 4-fold, 10 points in DMSO using Bravo. The compounds were diluted from […], 3-fold, 10 points in DMSO using Bravo. • b) Transfer of compounds: • 1) Use Echo transfer 100 nL cpd to the OptiPlate-384 plate. • 2) Spin the plates at 1000 rpm for 5 sec. • c) Cell suspension preparation: • 1) Thaw 1 vial of GLP-1 cells rapidly in 37° C. water bath. • 2) Transfer cell suspension into 10 ml of HBSS in a 15 ml conical tube. • 3) Centrifuge cells at 1000 rpm for 5 min at room temperature to pellet cells • 4) Gently aspirate supernatant being careful not to aspirate cells. • 5) Flick pellet to loose cells and re-suspend the cell pellet in 10 ml HBSS. Use a sterile pipette to pipette up and down to dislodge clumps. • 6) Count cells for concentration and to determine cell viability on Vi-cell. • 7) Re-suspend the GLP-1 cells in assay buffer at a concentration of 1.0×E5/mL cells. • 8) Transfer 10 μL GLP-1 cells to OptiPlate-384 plate. • d) HTRF cAMP Assay for agonist: • 1) Incubate the plate at RT for 30 min before adding the detection reagent. • 2) Add 10 μL each of detection reagent using Electric Multiple Channel Pipette. • 3) Cover the 384 plate with TopSeal-A film and incubate for 60 minutes at room temperature. • Remove the TopSeal-A, read on EnVision.
Create a new log (Inhibitor) vs response—Variable slope mode in Prism5.0 software, substitute the standard curve concentration (x) and its corresponding 665/615 data (y) into the model, convert the standard curve concentration (abscissa) by x=log(x), and make the standard curve through the converted xy.
Transform the data of 665/615 in the whole plate into a column of data, substitute it into y in the table of standard curve concentration (x) and 665/615 data (y), copy the x (interpolatedx) corresponding to automatic conversion by the software into a table, convert it into cAMP level by the formula x=10^(x), and reset the data into 384 distribution.
% Activity=(cAMP level−LC)/(HC−LC)*100% • Z factor: 1-3*(STD_HC+[…])/(HC-LC) • Assay Window: HC/LC • LC: The average cAMP level of adding DMSO wells • HC: The average cAMP level of adding the top concentration of reference compounds wells.
Create a new […] in Prism5.0 software, substitute the sample concentration (x) and its corresponding % Activity data (y) into the model, convert the standard curve concentration (abscissa) to x=log(x), and make the sample curve through the converted xy.
A general note: TR-FRET usually uses a lanthanide donor and a delayed reading to cut background.

Bounds are passed on as bounds.

Turning to `Cc1n[nH]c2ccc(C(=O)Nc3ccc4c(c3)nc(CN3CC=C(c5cccc(OCc6ccc(C#N)cc6F)n5)CC3)n4C[C@@H]3CCO3)cc12` [Compound 235], the EC50 (usually the concentration giving half of the maximal effect) worked out at 0.42 nM.
`Fc1cc(Cl)ccc1COc1cccc(C2=CCN(Cc3nc4ccc(CNc5cc(F)c6[nH]ncc6c5)cc4n3C[C@@H]3CCO3)CC2)n1` [Compound 268] displayed an EC50 of 3.64 nM.
For `Cc1n[nH]c2c(C(F)(F)F)cc(NC(=O)c3ccc4c(c3)nc(CN3CC=C(c5cccc6c5OC(C)(c5ccc(Cl)cc5F)O6)CC3)n4CC3CCO3)cc12` (stereo not shown) [Compound 295] the value was 2.19 nM.
In turn, `Cc1n[nH]c2cnc(C(=O)Nc3ccc4c(c3)nc(CN3CC=C(c5cccc(OCc6ccc(Cl)cc6F)n5)CC3)n4C[C@@H]3CCO3)nc12` [Compound 240] showed an EC50 of 20.7 nM.
For `COC(=O)C1CC(N(C)C)CN1C(=O)[C@H](C)NC(=O)c1ccc2c(c1)nc(CN1CCC(c3cccc(OCc4ccc(Cl)cc4F)n3)CC1)n2C[C@@H]1CCO1` (stereo partly shown) [Compound 74] the value was more than 10000 nM.
For `O=C(Nc1ccc2nc(CN3CC=C(c4cccc(OCc5ccc(Cl)cc5F)n4)CC3)n(CC3CCO3)c2c1)c1ccc2[nH]nc(Cl)c2c1` (stereo not shown) [Compound 284] the value was 9.85 nM; for `O=C(Nc1cc(F)c2[nH]ncc2c1)c1ccc2c(c1)nc(CN1CCC(c3cccc(OCc4ccc(Cl)cc4F)n3)CC1)n2C[C@@H]1CCO1` [Compound 102], 1.33 nM.
`Cc1cc(C(=O)Nc2ccc3c(c2)nc(CN2CC=C(c4cccc(OCc5ccc(Cl)cc5F)n4)CC2)n3C[C@@H]2CCO2)cc2c(C(F)F)n[nH]c12` [Compound 217] had an EC50 of 0.79 nM.
For `Cc1n[nH]c2c(C3CC3)cc(NC(=O)c3ccc4c(c3)nc(CN3CC=C(c5cccc(OCc6ccc(Cl)cc6F)n5)CC3)n4C[C@@H]3CCO3)cc12` [Compound 171] the value was 9.53 nM; for `O=C(Nc1ccc2nc(CN3CC=C(c4cccc(OCc5ccc(Cl)cc5F)n4)CC3)n(C[C@@H]3CCO3)c2c1)c1cc(F)c2[nH]ncc2c1` [Compound 283], 10.2 nM.
To `O=C(Nc1cc2[nH]c(=O)[nH]c2cc1F)c1ccc2c(c1)nc(CN1CCC(c3cccc(OCc4ccc(Cl)cc4F)n3)CC1)n2C[C@@H]1CCO1` [Compound 92] belongs 18.6 nM.
For `COC(=O)[C@@H]1C[C@H](O)CN1C(=O)CNC(=O)c1ccc2c(c1)nc(CN1CCC(c3cccc(OCc4ccc(Cl)cc4F)n3)CC1)n2C[C@@H]1CCO1` [Compound 63], the EC50 was found to be 0.49 nM.
On to `COCCn1c(Cc2ccc(-c3cccc(OCc4ccc(C#N)cc4F)n3)cc2)nc2cc(C(=O)NCCc3ccc(C(=O)NCCc4ccc(C(=O)O)cc4)cc3)ccc21` [Compound 10], for which the EC50 turned out to be 993 nM.
`O=C(Nc1ccc2[nH]nc(C(F)(F)F)c2c1)c1ccc2c(c1)nc(CN1CC=C(c3cccc(OCc4ccc(Cl)cc4F)n3)CC1)n2C[C@@H]1CCO1` [Compound 161] had an EC50 of 0.87 nM.
As for `Cc1cc(C(=O)Nc2ccc3c(c2)nc(Cc2c(F)cc(-c4cccc5c4OC(C)(c4ccc(Cl)cc4F)O5)cc2F)n3C[C@@H]2CCO2)cc2c1NC(=O)C21CC1` (stereo partly shown) [Compound 319], the EC50 came to 0.43 nM.
`COCCn1c(Cc2ccc(-c3cccc(OCc4ccc(C#N)cc4F)n3)cc2)nc2cc(C(=O)NCCc3ccc(C(=O)O)cc3)ccc21` [Compound 12] displayed an EC50 of 122 nM.
For `Cc1cc(NC(=O)c2ccc3c(c2)nc(CN2CC=C(c4cccc(OCc5ccc(Cl)cc5F)n4)CC2)n3C[C@@H]2CCO2)cc2c1NC(=O)C21CC1` [Compound 155] the value was 0.55 nM.
For `Cc1cc(NC(=O)c2ccc3c(c2)nc(CN2CC=C(c4cccc(OCc5ccc(Cl)cc5F)n4)CC2)n3C[C@@H]2CCO2)cc2c(C3CC3)n[nH]c12` [Compound 164] the value was 1.68 nM; for `N#Cc1ccc(COc2cccc(C3=CCN(Cc4nc5cc(NC(=O)c6cc(F)c7c(c6)C6(CC6)C(=O)N7)ccc5n4C[C@@H]4CCO4)CC3)n2)c(F)c1` [Compound 226], 0.12 nM.
As to `Cc1cc(C(=O)Nc2ccc3c(c2)nc(C2CC24CCN(c2cccc(OCc5ccc(Cl)cc5F)n2)CC4)n3C[C@@H]2CCO2)cc2[nH]c(=O)[nH]c12` (stereo partly shown) [Compound 249], a half-maximal response (EC50) required 0.44 nM.
To `Cc1n[nH]c2c(F)cc(C(=O)Nc3ccc4nc(CN5CC=C(c6cccc(OCc7ccc(C#N)cc7F)n6)CC5)n(CC5CCO5)c4c3)cc12` (stereo not shown) [Compound 289] belongs 0.99 nM; to `Cc1n[nH]c2c(C)cc(NC(=O)c3ccc4c(c3)nc(CN3CC=C(c5cccc(OCc6cc(F)c(C#N)s6)n5)CC3)n4C[C@@H]3CCO3)cc12` [Compound 364], 0.38 nM; to `Cc1n[nH]c2cnc(NC(=O)c3ccc4c(c3)nc(CN3CCC(c5cccc(OCc6ccc(Cl)cc6F)n5)CC3)n4C[C@@H]3CCO3)nc12` [Compound 195], 2.31 nM.
In turn, `Cc1cc2c(C#N)ccc(COc3cccc(C4=CCN(Cc5nc6cc(C(=O)Nc7ccc8[nH]nc(C)c8c7)ccc6n5C[C@@H]5CCO5)CC4)n3)c2o1` [Compound 355] returned a concentration giving a half-maximal response (EC50) of 0.78 nM.
In turn, `O=C(Nc1cc(C(F)(F)F)c2c(c1)C1(CC1)C(=O)N2)c1ccc2nc(CN3CC=C(c4cccc(OCc5ccc(Cl)cc5F)n4)CC3)n(C[C@@H]3CCO3)c2c1` [Compound 273] yielded an EC50 of 2.78 nM.
To `O=C(NCC(=O)N1CC(F)(F)C[C@H]1C(=O)O)c1ccc2c(c1)nc(CN1CC=C(c3cccc(OCc4ccc(Cl)cc4F)n3)CC1)n2C[C@@H]1CCO1` [Compound 72] belongs 0.61 nM.
For `O=C(N[C@@H](Cc1ccc(O)cc1)C(=O)O)c1ccc2c(c1)nc(CN1CCC(c3cccc(OCc4ccc(Cl)cc4F)n3)CC1)n2C[C@@H]1CCO1` [Compound 51] the value was 134 nM; for `Cc1n[nH]c2c(F)cc(NC(=O)c3ccc4c(c3)nc(CN3CC=C(c5cccc6c5O[C@](C)(c5ccc(C#N)cc5F)O6)CC3)n4CC3CCO3)cc12` (stereo partly shown) [Compound 300], 0.19 nM; for `CC(C)c1n[nH]c2ccc(C(=O)Nc3ccc4c(c3)nc(Cc3cc(F)c(-c5cccc6c5OC(C)(c5ccc(C#N)cc5F)O6)cc3F)n4CC3CCO3)cc12` (stereo not shown) [Compound 323], 2.73 nM.
In the case of `CC1(c2ccc(Cl)cc2F)Oc2cccc(C3=CCN(Cc4nc5cc(C(=O)Nc6ccc7[nH]nc(F)c7c6)ccc5n4CC4CCO4)CC3)c2O1` (stereo not shown) [Compound 292], a half-maximal response (EC50) required 8.73 nM.
As to `C=C(C)c1n[nH]c2ccc(C(=O)Nc3ccc4c(c3)nc(Cc3c(F)cc(-c5cccc6c5OC(C)(c5ccc(Cl)cc5F)O6)cc3F)n4CC3CCO3)cc12` (stereo not shown) [Compound 327], a half-maximal effect (EC50) was put at 3.96 nM.
`O=C(Nc1ccc2c(c1)nc(CN1CC=C(c3cccc(OCc4ccc(Cl)cc4F)n3)CC1)n2C[C@@H]1CCO1)c1ccc2[nH]nc(C(F)F)c2c1` [Compound 219] registered an EC50 of 1.21 nM.
Regarding `Cc1c[nH]c2c(C)cc(C(=O)Nc3ccc4c(c3)nc(CN3CC=C(c5cccc(OCc6ccc(Cl)cc6F)n5)CC3)n4C[C@@H]3CCO3)cc12` [Compound 390], the EC50 turned out to be 5.21 nM.
Turning to `CC1(c2ccc(Cl)cc2F)Oc2cccc(C3=CCN(Cc4nc5cc(C(=O)Nc6ccc7[nH]nc(C8CC8)c7c6)ccc5n4CC4CCO4)CC3)c2O1` (stereo not shown) [Compound 330], the EC50 was 0.88 nM.
To `CC(C)c1n[nH]c2ccc(C(=O)Nc3ccc4c(c3)nc(CN3CC=C(c5cccc(OCc6ccc(Cl)cc6F)n5)CC3)n4C[C@@H]3CCO3)cc12` [Compound 223] belongs 0.95 nM.
`O=C(Nc1ccc2c(c1)nc(CN1CC=C(c3cccc(OCc4ccc(Cl)cn4)n3)CC1)n2C[C@@H]1CCO1)c1cc(C(F)(F)F)c2c(c1)C1(CC1)C(=O)N2` [Compound 211] showed an EC50 of 1.02 nM.
To `Cn1c(=O)[nH]c2ccc(NC(=O)c3ccc4c(c3)nc(CN3CC=C(c5cccc(OCc6ccc(Cl)cc6F)n5)CC3)n4C[C@@H]3CCO3)cc21` [Compound 146] belongs 24 nM; to `Cc1n[nH]c2c(Cl)cc(C(=O)Nc3ccc4c(c3)nc(Cc3cc(F)c(-c5cccc6c5OC(C)(c5ccc(Cl)cc5F)O6)cc3F)n4CC3CCO3)cc12` (stereo not shown) [Compound 320], 13.7 nM.
To `Cc1cc(NC(=O)c2ccc3c(c2)nc(CN2CCC(c4cccc(OCc5ccc(Cl)cn5)n4)CC2)n3C[C@@H]2CCO2)cc2c1NC(=O)C21CC1` [Compound 131] belongs 1.21 nM; to `Cc1n[nH]c2ncc(NC(=O)c3ccc4c(c3)nc(CN3CC=C(c5cccc(OCc6ccc(Cl)cc6F)n5)CC3)n4C[C@@H]3CCO3)cc12` [Compound 189], 3.54 nM.
